Laboratory results reported in US7723289B2, “PIF tetrapeptides” (BioIncept, LLC, priority 2003, dated 2010).

System: PBMC
Assay: Time-dependent cytokine secretion by PBMC (Table 3)
Assay type: cell-based, human
Experimental: Detailed time dependent and multiple controls were used the secretion of several cytokines by PBMC (IL-2, IL-5, IL-8, GM-CSF, IL-4, IL-10, TNF-α, IFN-γβ, IL-1 and IL-6) were measured. […] By 4 hours, sPIF-1 blocked TNF alpha with recovery by 24 hours. Also INFgamma secretion initiated only after 48 hours. […] Effects on cytokines was already noted at 0.7 nM. Similar effects were found also with other mitogens LPS and PHA when PIF-1 was tested.

[1] = 4 h post induction, substance alone
[2] = 4 h post induction, with MabCD3 coated wells
[3] = 24 h post induction, substance alone
[4] = 24 h post induction, with MabCD3 coated wells
[5] = 48 h post induction, substance alone
[6] = 48 h post induction, with MabCD3 coated wells
[7] = 96 h post induction, substance alone
[8] = 96 h post induction, with MabCD3 coated wells

MVRIKPGSANKPSDD [sPIF-1(15)]
concentration at which effects on cytokines was already noted: 0.7 nM | GM-CSF [1]: 0 pg/mL | IFN-y [1]: 0 pg/mL | IL-1β [1]: 0 pg/mL | IL-2 [1]: 0 pg/mL | IL-4 [1]: 0 pg/mL | IL-5 [1]: 0 pg/mL | IL-6 [1]: 0 pg/mL | IL-8 [1]: 684.5 pg/mL | IL-10 [1]: 0 pg/mL | TNF-α [1]: 0 pg/mL | GM-CSF [2]: 0 pg/mL | IFN-y [2]: 0 pg/mL | IL-1β [2]: 0 pg/mL | IL-2 [2]: 0 pg/mL | IL-4 [2]: 0 pg/mL | IL-5 [2]: 0 pg/mL | IL-6 [2]: 17.5 pg/mL | IL-8 [2]: 514.8 pg/mL | IL-10 [2]: 0 pg/mL | TNF-α [2]: 481.6 pg/mL | GM-CSF [3]: 0 pg/mL | IFN-y [3]: 0 pg/mL | IL-1β [3]: 0 pg/mL | IL-2 [3]: 0 pg/mL | IL-4 [3]: 0 pg/mL | IL-5 [3]: 0 pg/mL | IL-6 [3]: 36.3 pg/mL | IL-8 [3]: >6330 pg/mL | IL-10 [3]: 0 pg/mL | TNF-α [3]: 38.0 pg/mL | GM-CSF [4]: 58.9 pg/mL | IFN-y [4]: 0 pg/mL | IL-1β [4]: 2914.1 pg/mL | IL-2 [4]: 9045.7 pg/mL | IL-4 [4]: 58.9 pg/mL | IL-5 [4]: 397.5 pg/mL | IL-6 [4]: >5200 pg/mL | IL-8 [4]: >6330 pg/mL | IL-10 [4]: 1710.1 pg/mL | TNF-α [4]: >11390 pg/mL | GM-CSF [5]: 0 pg/mL | IFN-y [5]: 0 pg/mL | IL-1β [5]: 0 pg/mL | IL-2 [5]: 0 pg/mL | IL-4 [5]: 0 pg/mL | IL-5 [5]: 0 pg/mL | IL-6 [5]: 0 pg/mL | IL-8 [5]: >6330 pg/mL | IL-10 [5]: 0 pg/mL | TNF-α [5]: 0 pg/mL | GM-CSF [6]: 0 pg/mL | IFN-y [6]: >4740 pg/mL | IL-1β [6]: 3295.4 pg/mL | IL-2 [6]: 6015.3 pg/mL | IL-4 [6]: 0 pg/mL | IL-5 [6]: 943.6 pg/mL | IL-6 [6]: >5200 pg/mL | IL-8 [6]: >6330 pg/mL | IL-10 [6]: 664.9 pg/mL | TNF-α [6]: >11390 pg/mL | GM-CSF [7]: 0 pg/mL | IFN-y [7]: 0 pg/mL | IL-1β [7]: 0 pg/mL | IL-2 [7]: 0 pg/mL | IL-4 [7]: 0 pg/mL | IL-5 [7]: 0 pg/mL | IL-6 [7]: 0 pg/mL | IL-8 [7]: 6679.0 pg/mL | IL-10 [7]: 0 pg/mL | TNF-α [7]: 0 pg/mL | GM-CSF [8]: 0 pg/mL | IFN-y [8]: 0 pg/mL | IL-1β [8]: 0 pg/mL | IL-2 [8]: 0 pg/mL | IL-4 [8]: 0 pg/mL | IL-5 [8]: 0 pg/mL | IL-6 [8]: 0 pg/mL | IL-8 [8]: 0 pg/mL | IL-10 [8]: 0 pg/mL | TNF-α [8]: 0 pg/mL | Th2 cytokine (IL10) secretion (CD3MAb as mitogen, after 24 hours): Major increase | TNF alpha secretion (CD3MAb as mitogen, by 4 hours, recovery by 24 hours): blocked
